The results in this text go back to PMC7531004, “Discovery of gramicidin A analogues with altered activities by multidimensional screening of a one-bead-one-compound library” (Nature Communications, 2020).

Where a SMILES comes first, the peptide text is derived from it. [ ]: non-standard residue; d: D form. The star is where a group is joined. NHCH2CH2OH = OCCN*; For = O=C*

For orientation: viability means a read-out of living cells in per cent, often relative to untreated cells.

For data set [1], the system named is Streptococcus pyogenes SSI-9. The experiment in a line: Antibacterial activity assay of bead-derived peptides (three concentrations). The data set is classed as cell-based. Details: key: +++: inhibition by the 640-fold diluted peptide solution; ++: inhibition by the 160-fold diluted solution; +: inhibition by the 40-fold diluted solution; -: no inhibition. To be noted: S. pyogenes, bead-derived peptide solution, three concentrations. The method in brief: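 Growth inhibition scored visually as precipitated bacteria after 37 °C, 18 h incubation. Streptococcus pyogenes SSI-9 inoculum of 2 × 10^5 CFU in Ca2+/Mg2+-adjusted Mueller Hinton broth plus 5% laked horse blood; peptides tested at three levels: stock, 4-fold and 16-fold DMSO dilutions.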

For data set [2] the following is noted: cell viability/%. The essentials:
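Peptide stocks diluted 250× in growth medium; P388 cells 1 × 10^4 cells/mL final; 37 °C, 5% CO2, 92 h. WST-1 + 1-methoxy PMS, 4 h, A415. Output: % viability.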

Data set [3] is described as follows: H+/Na+ transport assay of bead-derived peptides (one-point).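 Note: relative to parent gramicidin A activity set to 1.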 The format is biochemical. Set-up: key: relative activity; mean of two control wells = 1.00. Conditions: bead-derived peptide solution, EYPC/EYPG LUVs. The method in brief:
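Values are normalized fluorescence, with Triton X-100 defining 100% and untreated LUVs 0%, and the two control wells averaging 1.00. Vesicles carried 1.0 mM pyranine and included egg yolk phosphatidylglycerol. Peptides were incubated with them 30 min at room temperature.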

On to `CNC(=O)C[C@@H](NC(=O)[C@H](C)NC(=O)CNC(=O)[C@@H](NC=O)C(C)C)C(=O)N[C@@H](C)C(=O)N[C@H](CC(C)C)C(=O)N[C@H](C(=O)N[C@@H](C(=O)N[C@@H](Cc1c[nH]c2ccccc12)C(=O)N[C@H](CC(C)C)C(=O)N[C@@H](Cc1c[nH]c2ccccc12)C(=O)N[C@H](CC(C)C)C(=O)N[C@@H](Cc1c[nH]c2ccccc12)C(=O)N[C@H](CC(C)C)C(=O)N[C@@H](Cc1c[nH]c2ccccc12)C(=O)NCCO)C(C)C)C(C)C` [compound 8038] (For-VGA[dD](NHMe)A[dL]V[dV]W[dL]W[dL]W[dL]W-NHCH2CH2OH), for which the antibacterial activity entry in data set [1] is on record as “-”. In addition, the viability in data set [2] amounted to 100%. In addition, in data set [3], the “H+/Na+ transport activity normalized against the value of 1 (1.00)” value (“H+/Na+ transport activity normalized” for short) came out at 1.04.

Regarding `CC(C)C[C@@H](NC(=O)[C@H](C)NC(=O)CNC(=O)[C@@H](NC=O)C(C)C)C(=O)N[C@@H](C)C(=O)N[C@H](CC(C)C)C(=O)N[C@H](C(=O)N[C@H](CC(C)C)C(=O)N[C@@H](Cc1c[nH]c2ccccc12)C(=O)N[C@@H](C(=O)N[C@@H](Cc1c[nH]c2ccccc12)C(=O)N[C@H](CC(C)C)C(=O)N[C@@H](Cc1c[nH]c2ccccc12)C(=O)N[C@H](CC(C)C)C(=O)N[C@@H](Cc1c[nH]c2ccccc12)C(=O)NCCO)C(C)C)C(C)C` [compound 2828] (For-VGA[dL]A[dL]V[dL]W[dV]W[dL]W[dL]W-NHCH2CH2OH), the antibacterial activity entry in data set [1] is on record as “-”. Further, the viability in data set [2] was found to be 2.8%. Besides, the “H+/Na+ transport activity normalized” value in data set [3] came out at 1.15.

For the compound `CC(C)C[C@@H](NC(=O)[C@@H](NC(=O)[C@H](NC(=O)[C@H](C)NC(=O)[C@H](NC(=O)[C@H](C)NC(=O)CNC(=O)[C@@H](NC=O)C(C)C)[C@H](C)O)C(C)C)C(C)C)C(=O)N[C@@H](Cc1c[nH]c2ccccc12)C(=O)N[C@@H](C(=O)N[C@@H](Cc1c[nH]c2ccccc12)C(=O)N[C@@H](C(=O)N[C@@H](Cc1c[nH]c2ccccc12)C(=O)N[C@@H](C(=O)N[C@@H](Cc1c[nH]c2ccccc12)C(=O)NCCO)C(C)C)C(C)C)[C@H](C)O` [compound 1156] (For-VGA[dT]A[dV]V[dL]W[dT]W[dV]W[dV]W-NHCH2CH2OH), in data set [1], the antibacterial activity entry was “-”. In data set [2], this compound gave a viability of 85.9%. The “H+/Na+ transport activity normalized” value in data set [3] was 1.03.

On to `CNC(=O)C[C@@H](NC(=O)[C@H](Cc1c[nH]c2ccccc12)NC(=O)[C@H](NC(=O)[C@H](Cc1c[nH]c2ccccc12)NC(=O)[C@@H](CC(C)C)NC(=O)[C@H](Cc1c[nH]c2ccccc12)NC(=O)[C@@H](CC(C)C)NC(=O)[C@@H](NC(=O)[C@@H](CC(C)C)NC(=O)[C@H](C)NC(=O)[C@H](NC(=O)[C@H](C)NC(=O)CNC(=O)[C@@H](NC=O)C(C)C)C(C)C)C(C)C)C(C)C)C(=O)N[C@@H](Cc1c[nH]c2ccccc12)C(=O)NCCO` [compound 7334] (For-VGA[dV]A[dL]V[dL]W[dL]W[dV]W[dD](NHMe)W-NHCH2CH2OH), for which the antibacterial activity entry in data set [1] is “-”. In data set [2], the viability was found to be 94.6%. In data set [3], the “H+/Na+ transport activity normalized” value is listed as 1.11.

In the case of `CNC(=O)C[C@@H](NC(=O)[C@@H](NC(=O)[C@H](NC(=O)[C@H](C)NC(=O)[C@H](NC(=O)[C@H](C)NC(=O)CNC(=O)[C@@H](NC=O)C(C)C)C(C)C)C(C)C)C(C)C)C(=O)N[C@@H](Cc1c[nH]c2ccccc12)C(=O)N[C@@H](C(=O)N[C@@H](Cc1c[nH]c2ccccc12)C(=O)N[C@@H](C(=O)N[C@@H](Cc1c[nH]c2ccccc12)C(=O)N[C@H](CC(C)C)C(=O)N[C@@H](Cc1c[nH]c2ccccc12)C(=O)NCCO)C(C)C)C(C)C` [compound 11413] (For-VGA[dV]A[dV]V[dD](NHMe)W[dV]W[dV]W[dL]W-NHCH2CH2OH), the antibacterial activity entry in data set [1] is given as “-”. The viability in data set [2] was found to be 45.4%. In data set [3], the “H+/Na+ transport activity normalized” value is recorded as 1.21.

For the compound `CC(C)C[C@@H](NC(=O)[C@H](C)NC(=O)CNC(=O)[C@@H](NC=O)C(C)C)C(=O)N[C@@H](C)C(=O)N[C@H](CC(C)C)C(=O)N[C@H](C(=O)N[C@@H](C(=O)N[C@@H](Cc1c[nH]c2ccccc12)C(=O)N[C@@H](C(=O)N[C@@H](Cc1c[nH]c2ccccc12)C(=O)N[C@@H](C(=O)N[C@@H](Cc1c[nH]c2ccccc12)C(=O)N[C@H](CC(C)C)C(=O)N[C@@H](Cc1c[nH]c2ccccc12)C(=O)NCCO)C(C)C)[C@H](C)O)[C@H](C)O)C(C)C` [compound 3782] (For-VGA[dL]A[dL]V[dT]W[dT]W[dV]W[dL]W-NHCH2CH2OH), in data set [1], the antibacterial activity entry is “-”. In data set [2], this compound registered a viability of 100%. The “H+/Na+ transport activity normalized” value in data set [3] worked out at 1.12.

With `CC(C)C[C@@H](NC(=O)[C@H](C)NC(=O)[C@H](NC(=O)[C@H](C)NC(=O)CNC(=O)[C@@H](NC=O)C(C)C)C(C)C)C(=O)N[C@H](C(=O)N[C@@H](C(=O)N[C@@H](Cc1c[nH]c2ccccc12)C(=O)N[C@@H](C(=O)N[C@@H](Cc1c[nH]c2ccccc12)C(=O)N[C@H](CC(C)C)C(=O)N[C@@H](Cc1c[nH]c2ccccc12)C(=O)N[C@H](CC(C)C)C(=O)N[C@@H](Cc1c[nH]c2ccccc12)C(=O)NCCO)C(C)C)C(C)C)C(C)C` [compound 1406] (For-VGA[dV]A[dL]V[dV]W[dV]W[dL]W[dL]W-NHCH2CH2OH), the antibacterial activity entry in data set [1] is “+”. In data set [2], this compound returned a viability of 91.1%. The “H+/Na+ transport activity normalized” value in data set [3] was found to be 1.04.

As for `CC(C)C[C@@H](NC(=O)[C@H](C)NC(=O)CNC(=O)[C@@H](NC=O)C(C)C)C(=O)N[C@@H](C)C(=O)N[C@H](CC(C)C)C(=O)N[C@H](C(=O)N[C@@H](C(=O)N[C@@H](Cc1c[nH]c2ccccc12)C(=O)N[C@H](CC(C)C)C(=O)N[C@@H](Cc1c[nH]c2ccccc12)C(=O)N[C@@H](C(=O)N[C@@H](Cc1c[nH]c2ccccc12)C(=O)N[C@H](CC(C)C)C(=O)N[C@@H](Cc1c[nH]c2ccccc12)C(=O)NCCO)[C@H](C)O)[C@H](C)O)C(C)C` [compound 1176] (For-VGA[dL]A[dL]V[dT]W[dL]W[dT]W[dL]W-NHCH2CH2OH), in data set [1], the antibacterial activity result was “-”. The same compound came in with a viability in data set [2] of 100%. For the same compound, the “H+/Na+ transport activity normalized” value in data set [3] turned out to be 1.01.

With `CC(C)C[C@@H](NC(=O)[C@H](C)NC(=O)CNC(=O)[C@@H](NC=O)C(C)C)C(=O)N[C@@H](C)C(=O)N[C@@H](C(=O)N[C@H](C(=O)N[C@@H](C(=O)N[C@@H](Cc1c[nH]c2ccccc12)C(=O)N[C@@H](C(=O)N[C@@H](Cc1c[nH]c2ccccc12)C(=O)N[C@H](CC(C)C)C(=O)N[C@@H](Cc1c[nH]c2ccccc12)C(=O)N[C@H](CC(C)C)C(=O)N[C@@H](Cc1c[nH]c2ccccc12)C(=O)NCCO)[C@H](C)O)C(C)C)C(C)C)C(C)C` [compound 10674] (For-VGA[dL]A[dV]V[dV]W[dT]W[dL]W[dL]W-NHCH2CH2OH), the antibacterial activity entry in data set [1] is “+”. Further, the viability in data set [2] was 87.3%. Also, the “H+/Na+ transport activity normalized” value in data set [3] amounted to 1.08.

Turning to `CC(C)C[C@@H](NC(=O)[C@H](Cc1c[nH]c2ccccc12)NC(=O)[C@@H](CC(C)C)NC(=O)[C@@H](NC(=O)[C@H](NC(=O)[C@H](C)NC(=O)[C@H](NC(=O)[C@H](C)NC(=O)CNC(=O)[C@@H](NC=O)C(C)C)C(C)C)C(C)C)C(C)C)C(=O)N[C@@H](Cc1c[nH]c2ccccc12)C(=O)N[C@H](CC(C)C)C(=O)N[C@@H](Cc1c[nH]c2ccccc12)C(=O)N[C@@H](C(=O)N[C@@H](Cc1c[nH]c2ccccc12)C(=O)NCCO)C(C)C` [compound 511] (For-VGA[dV]A[dV]V[dL]W[dL]W[dL]W[dV]W-NHCH2CH2OH), in data set [1], the antibacterial activity entry is “++”. Besides, the viability in data set [2] is 1.8%. Further, the “H+/Na+ transport activity normalized” value in data set [3] is 1.01.

On to `CC(C)C[C@@H](NC(=O)[C@H](C)NC(=O)[C@H](NC(=O)[C@H](C)NC(=O)CNC(=O)[C@@H](NC=O)C(C)C)C(C)C)C(=O)N[C@H](C(=O)N[C@@H](C(=O)N[C@@H](Cc1c[nH]c2ccccc12)C(=O)N[C@@H](C(=O)N[C@@H](Cc1c[nH]c2ccccc12)C(=O)N[C@@H](C(=O)N[C@@H](Cc1c[nH]c2ccccc12)C(=O)N[C@H](CC(C)C)C(=O)N[C@@H](Cc1c[nH]c2ccccc12)C(=O)NCCO)C(C)C)[C@H](C)O)C(C)C)C(C)C` [compound 12865] (For-VGA[dV]A[dL]V[dV]W[dT]W[dV]W[dL]W-NHCH2CH2OH), for which the antibacterial activity entry in data set [1] is listed as “-”. This compound also displayed a viability in data set [2] of 91.7%. In data set [3], the “H+/Na+ transport activity normalized” value stood at 1.10.

For the compound `CC(C)C[C@@H](NC(=O)[C@H](C)NC(=O)CNC(=O)[C@@H](NC=O)C(C)C)C(=O)N[C@@H](C)C(=O)N[C@H](CC(C)C)C(=O)N[C@H](C(=O)N[C@@H](C(=O)N[C@@H](Cc1c[nH]c2ccccc12)C(=O)N[C@H](CC(C)C)C(=O)N[C@@H](Cc1c[nH]c2ccccc12)C(=O)N[C@@H](C(=O)N[C@@H](Cc1c[nH]c2ccccc12)C(=O)N[C@@H](C(=O)N[C@@H](Cc1c[nH]c2ccccc12)C(=O)NCCO)C(C)C)C(C)C)[C@H](C)O)C(C)C` [compound 8130] (For-VGA[dL]A[dL]V[dT]W[dL]W[dV]W[dV]W-NHCH2CH2OH), the antibacterial activity result in data set [1] is given as “-”. In data set [2], this compound registered a viability of 100%. Besides, the “H+/Na+ transport activity normalized” value in data set [3] is 1.17.
